Measured values taken from US20220273666A1, “NANOPARTICLE FORMULATION OF BCL-2 INHIBITOR” (Recurium IP Holdings, LLC, priority 2019, published 2022).

Legend:
NCI-H146 cells = experiment: NCI-H146 cell proliferation assay (CellTiter-Glo); type: cell-based; conditions: Homo sapiens, 72 h treatment, read-out: H146 CTG IC50
Procedure: Cell proliferation was measured using the CellTiter-Glo® Luminescent Cell Viability Assay. The assay involved the addition of a single reagent (CellTiter-Glo® Reagent) directly to cells cultured in serum-supplemented medium. RS4;11 (ATCC, CRL-1873) cells were cultured according to ATCC recommendations and were seeded at 50,000 cells per well. NCI-H1963 cells (ATCC CRL-5982) were cultured according to ATCC recommendations and seeded at 12,000 cells per well. NCI-H146 (ATCC, HTB-173) cells were cultured according to ATCC recommendations and were seeded at 20,000 cells per well.
Each compound evaluated was prepared as a DMSO stock solution (10 mM). Compounds were tested in duplicate on each plate, with a 10-point serial dilution curve (1:3 dilution). Compound treatment (1.0 μL for RS4;11 and NCI-H1963, 10 μL for NCI-H146) was added from the compound dilution plate to the cell plate. The highest compound concentration was 10 μM (final), with a 0.1% final DMSO concentration. Plates were then incubated at 37° C., 5% CO2. After 48 h of compound treatment for RS4;11 or 72 h for NCI-H-1963 and NCI-H-146, cell plates were equilibrated at rt for approximately 30 mins. An equi-volume amount of CellTiter-G)® Reagent (40 (L for […] and NC-H1963, 100 μL for NCI-H-146)) was added to each well. Plates were mixed for 2 mins on an orbital shaker to induce cell lysis and then incubated at RT for 10 mins to stabilize the luminescent signal. Luminescence was recorded using a Envision or SpectraMax M5e plate reader according to CellTiter-Glo protocol. IC50 of each compound was calculated using GraphPad Prism by nonlinear regression analysis.

[1] = Phase I/II clinical trials, chronic lymphocytic leukemia; cited from earlier work
Bcl-XL = molecular target: T1, Bcl-XL (Homo sapiens, UniProt Q07817); experiment: Bcl-2/Bcl-XL HTRF assay; type: binding; conditions: 3 nM Bcl-XL, 40 nM FAM-Bad peptide
T1 construct: host or cells: T7 phage in E. coli host derived from BL21
T1 sequence (Q07817 whole entry): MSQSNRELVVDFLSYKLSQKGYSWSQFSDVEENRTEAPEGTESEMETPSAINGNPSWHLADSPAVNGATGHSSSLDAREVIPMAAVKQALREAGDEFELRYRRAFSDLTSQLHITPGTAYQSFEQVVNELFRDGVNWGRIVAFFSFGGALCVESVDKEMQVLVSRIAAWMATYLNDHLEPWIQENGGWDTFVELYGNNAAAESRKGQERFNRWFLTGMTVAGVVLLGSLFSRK
Procedure: (§1) Binding to Bcl-2 proteins Bcl-2, and Bcl-XL was also assessed using an HTRF assay. […] This binding can be monitored by HTRF signals between anti-GST-Tb and FAM-peptide using GST-tagged Bcl proteins. Assay conditions: Bcl-2: 4 nM Bcl-2, 100 nM FAM-Bak peptide, Bcl-XL: 3 nM Bcl-XL, 40 nM FAM-Bad peptide in 20 mM K Phosphate, pH 7.5, 50 mM NaCl, 1 mM EDTA, 0.005% Triton X-100 and 1% DMSO (final). […] Compound stock solutions were added to protein solution using Acoustic technology. The compounds were then incubated with protein for 10 min at room temperature. The respective FAM labeled peptide was added and incubated for another 10 min and then anti-GST-Tb was added. After 60 min at rt, the HTRF fluorescence signal ratio was measured. Curve fits were performed in GraphPad Prism 4 with “sigmoidal dose-response (variable slope)”; 4 parameters with Hill Slope.

Bcl-2 = Bcl-2 (Homo sapiens, UniProt P10415); experiment: Bcl-2/Bcl-XL HTRF assay
Bcl-2, sequence (P10415 whole entry): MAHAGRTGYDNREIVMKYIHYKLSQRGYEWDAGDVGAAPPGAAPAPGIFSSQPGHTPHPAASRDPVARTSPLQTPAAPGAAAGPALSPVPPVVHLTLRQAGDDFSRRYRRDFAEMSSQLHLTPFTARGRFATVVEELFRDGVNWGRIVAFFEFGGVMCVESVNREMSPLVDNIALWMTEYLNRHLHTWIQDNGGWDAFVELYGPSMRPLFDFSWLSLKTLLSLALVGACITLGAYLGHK
Procedure: as §1

[2] = multiple oral administration under fed conditions; cited from earlier work

Compound | IC50 (NCI-H146 cells) [nM] | IC50 (Bcl-XL) [nM] | IC50 (Bcl-2) [nM] | further results
CC1(C)CCC(CN2CCN(c3ccc(C(=O)NS(=O)(=O)c4ccc(N[C@H](CCN5CCO[C@@H](CO)C5)CSc5ccccc5)c(S(=O)(=O)C(F)(F)F)c4)cc3)CC2)=C(C23CC(C(F)F)(C2)C3)C1 [Example 103] | 100 to 1000 | – | – | –
CC1(C)CCC(c2ccc(Cl)cc2)=C(CN2CCN(c3ccc(C(=O)NS(=O)(=O)c4ccc(N[C@H](CCN5CCOCC5)CSc5ccccc5)c(S(=O)(=O)C(F)(F)F)c4)cc3)CC2)C1 [ABT-263, Navitoclax, reference compound] | ≤ 100 | – | – | side effect limiting dosage [1]: occurrence of thrombocytopenia
CCC12CC(C3=C(CN4CCN(c5ccc(C(=O)NS(=O)(=O)c6ccc(N[C@H](CCN7CCC(OC)CC7)CSc7ccccc7)c(S(=O)(=O)C(F)(F)F)c6)cc5)CC4)CCC(C)(C)C3)(C1)C2 [Example 108, (R)-4-(4-((2-(3-ethylbicyclo[1.1.1]pentan-1-yl)-4,4-dimethylcyclohex-1-en-1-yl)methyl)piperazin-1-yl)-N-((4-((4-(4-methoxypiperidin-1-yl)-1-(phenylthio)butan-2-yl)amino)-3-((triluoromethyl)sulfonyl)phenyl)sulfonyl)benzamide] | ≤ 100 | – | – | –
COC1CCN(CC[C@H](CSc2ccccc2)Nc2ccc(S(=O)(=O)NC(=O)c3ccc(N4CCN(CC5=C(C67CC(C(F)F)(C6)C7)CC(C)(C)CC5)CC4)cc3)cc2S(=O)(=O)C(F)(F)F)CC1 [Example 99, (R)-4-(4-((2-(3-(difluoromethyl)bicyclo[1.1.1]pentan-1-yl)-4,4-dimethylcyclohex-1-en-1-yl)methyl)piperazin-1-yl)-N-((4-((4-(4-methoxypiperidin-1-yl)-1-(phenylthio)butan-2-yl)amino)-3-((trifluoromethyl)sulfonyl)phenyl)sulfonyl)benzamide] | ≤ 100 | < 10 | < 10 | –
CC1(C)CCC(CN2CCN(c3ccc(C(=O)NS(=O)(=O)c4ccc(NCC5CCOCC5)c([N+](=O)[O-])c4)c(Oc4cnc5[nH]ccc5c4)c3)CC2)=C(c2ccc(Cl)cc2)C1 [ABT-199, venetoclax] | – | – | – | time to maximum plasma concentration [2]: 5 to 8 h
CC(C)N1CCN(CC[C@H](CSc2ccccc2)Nc2ccc(S(=O)(=O)NC(=O)c3ccc(N4CCN(CC5=C(C67CC(C(F)F)(C6)C7)CC(C)(C)CC5)CC4)cc3)cc2S(=O)(=O)C(F)(F)F)CC1 [Example 107, (R)-4-(4-((2-(3-(difluoromethyl)bicyclo[1.1.1]pentan-1-yl)-4,4-dimethylcyclohex-1-en-1-yl)methyl)piperazin-1-yl)-N-((4-((4-(4-isopropylpiperazin-1-yl)-1-(phenylthio)butan-2-yl)amino)-3-((trifluoromethyl)sulfonyl)phenyl)sulfonyl)benzamide] | ≤ 100 | – | – | –
CCOC1CCN(CC[C@H](CSc2ccccc2)Nc2ccc(S(=O)(=O)NC(=O)c3ccc(N4CCN(CC5=C(C67CC(C(F)F)(C6)C7)CC(C)(C)CC5)CC4)cc3)cc2S(=O)(=O)C(F)(F)F)CC1 [Example 105, (R)-4-(4-((2-(3-(difluoromethyl)bicyclo[1.1.1]pentan-1-yl)-4,4-dimethylcyclohex-1-en-1-yl)methyl)piperazin-1-yl)-N-((4-((4-(4-ethoxypiperidin-1-yl)-1-(phenylthio)butan-2-yl)amino)-((trifluoromethyl)sulfonyl)phenyl)sulfonyl)benzamide] | ≤ 100 | – | – | –
CC1(C)CCC(CN2CCN(c3ccc(C(=O)NS(=O)(=O)c4ccc(N[C@H](CCN5CCO[C@H](CO)C5)CSc5ccccc5)c(S(=O)(=O)C(F)(F)F)c4)cc3)CC2)=C(C23CC(C(F)F)(C2)C3)C1 [Example 102] | ≤ 100 | – | – | –
COC(=O)C1(C)CCN(CC[C@H](CSc2ccccc2)Nc2ccc(S(=O)(=O)NC(=O)c3ccc(N4CCN(CC5=C(C67CC(C(F)F)(C6)C7)CC(C)(C)CC5)CC4)cc3)cc2S(=O)(=O)C(F)(F)F)CC1 [Example 104, (R)-Methyl 1-(3-((4-(N-(4-(4-((2-(3-(difluoromethyl)bicyclo[1.1.1]pentan-1-yl)-4,4-dimethylcyclohex-1-en-1-yl)methyl)piperazin-1-yl)benzoyl)sulfamoyl)-2-((trifluoromethyl)sulfonyl)phenyl)amino)-4-(phenylthio)butyl)-4-methylpiperidine-4-carboxylate] | ≤ 100 | < 10 | < 10 | –
CN1CCN(CC[C@H](CSc2ccccc2)Nc2ccc(S(=O)(=O)NC(=O)c3ccc(N4CCN(CC5=C(C67CC(C(F)F)(C6)C7)CC(C)(C)CC5)CC4)cc3)cc2S(=O)(=O)C(F)(F)F)CC1 [Example 98, (R)-4-(4-((2-(3-(difluoromethyl)bicyclo[1.1.1]pentan-1-yl)-4,4-dimethylcyclohex-1-en-1-yl)methyl)piperazin-1-yl)-N-((4-((4-(4-methylpiperazin-1-yl)-1-(phenylthio)butan-2-yl)amino)-3-((trifluoromethyl)sulfonyl)phenyl)sulfonyl)benzamide] | 100 to 1000 | < 10 | < 10 | –
COC1(C)CCN(CC[C@H](CSc2ccccc2)Nc2ccc(S(=O)(=O)NC(=O)c3ccc(N4CCN(CC5=C(C67CC(C(F)F)(C6)C7)CC(C)(C)CC5)CC4)cc3)cc2S(=O)(=O)C(F)(F)F)CC1 [Example 101] | ≤ 100 | – | – | –
CC1(C)CCC(CN2CCN(c3ccc(C(=O)NS(=O)(=O)c4ccc(N[C@H](CCN5CCCC5)CSc5ccccc5)c(S(=O)(=O)C(F)(F)F)c4)cc3)CC2)=C(C23CC(C(F)F)(C2)C3)C1 [Example 100, (R)-4-(4-((2-(3-(difluoromethyl)bicyclo[1.1.1]pentan-1-yl)-4,4-dimethylcyclohex-1-en-1-yl)methyl)piperazin-1-yl)-N-((4-((1-(phenylthio)-4-(pyrrolidin-1-yl)butan-2-yl)amino)-3-((trifluoromethyl)sulfonyl)phenyl)sulfonyl)benzamide] | ≤ 100 | < 10 | < 10 | –
CC(C)OC1CCN(CC[C@H](CSc2ccccc2)Nc2ccc(S(=O)(=O)NC(=O)c3ccc(N4CCN(CC5=C(C67CC(C(F)F)(C6)C7)CC(C)(C)CC5)CC4)cc3)cc2S(=O)(=O)C(F)(F)F)CC1 [Example 106] | 100 to 1000 | – | – | –
